Reference: PubChem BioAssay AID248 (DTP/NCI, 2004)
Toxic doses and inconclusive results are not listed. No stated cut-off is given here; in the data, active means T/C of 150% or more; inactive means T/C below 125%.

System: L1210 leukemia ip in BDF1 mice, survival T/C
Experiment: NCI In Vivo Anticancer Drug Screen. Data for tumor model L1210 Leukemia (intraperitoneal) in B6D2F1 (BDF1) mice
Settings: endpoint: mean survival time, higher = longer survival
Summary of the method: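 Value reflects the ratio of survival in compound-treated mice to survival in vehicle-treated controls, with both groups carrying the same transplanted tumor.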

[1] = dose: 100.0 mg/kg/injection, schedule: Q01DX009 (ip), vehicle: Klucel (hydroxypropylcellulose) (HPC)
[2] = dose: 100.0 mg/kg/injection, schedule: Q04DX003 (ip), vehicle: Klucel (hydroxypropylcellulose) (HPC)
[3] = dose: 200.0 mg/kg/injection, schedule: Q01DX009 (ip), vehicle: Klucel (hydroxypropylcellulose) (HPC)
[4] = dose: 200.0 mg/kg/injection, schedule: Q04DX003 (ip), vehicle: Klucel (hydroxypropylcellulose) (HPC)
[5] = dose: 400.0 mg/kg/injection, schedule: Q01DX009 (ip), vehicle: Klucel (hydroxypropylcellulose) (HPC)
[6] = dose: 400.0 mg/kg/injection, schedule: Q04DX003 (ip), vehicle: Klucel (hydroxypropylcellulose) (HPC)
[7] = dose: 100.0 mg/kg/injection, schedule: Q01DX009 (ip), vehicle: saline with Tween-80
[8] = dose: 200.0 mg/kg/injection, schedule: Q01DX009 (ip), vehicle: saline with Tween-80
[9] = dose: 100.0 mg/kg/injection, schedule: Q04DX003 (ip), vehicle: saline
[10] = dose: 200.0 mg/kg/injection, schedule: Q04DX003 (ip), vehicle: saline
[11] = dose: 400.0 mg/kg/injection, schedule: Q04DX003 (ip), vehicle: saline
[12] = dose: 100.0 mg/kg/injection, schedule: Q01DX001 (ip), vehicle: saline
[13] = dose: 200.0 mg/kg/injection, schedule: Q01DX001 (ip), vehicle: saline
[14] = dose: 400.0 mg/kg/injection, schedule: Q01DX001 (ip), vehicle: saline

Measured: T/C

CCC(Cl)COP(=O)(OCC(Cl)CC)C(OP(=S)(OCC(Cl)CC)OCC(Cl)CC)c1ccc(Cl)c(Cl)c1 (stereo not given)
inactive: dose: 25.0 mg/kg/injection, schedule: Q04DX002 (sc), vehicle: olive oil, sesame oil, peanut oil 123 % of control | dose: 50.0 mg/kg/injection, schedule: Q04DX002 (sc), vehicle: olive oil, sesame oil, peanut oil 108 % of control | dose: 100.0 mg/kg/injection, schedule: Q04DX002 (sc), vehicle: olive oil, sesame oil, peanut oil 118 % of control

Cc1cccc(NC(=O)c2ccccc2C(=O)O)c1C
inactive: [1] 98 % of control | [2] 98 % of control | [3] 93 % of control | [4] 95 % of control | [5] 96 % of control | [6] 93 % of control

O=[N+]([O-])c1ccc(CCCl)cc1
inactive: dose: 100.0 mg/kg/injection, schedule: Q04DX003 (ip), vehicle: acetone 102 % of control | dose: 200.0 mg/kg/injection, schedule: Q04DX003 (ip), vehicle: acetone 104 % of control | dose: 400.0 mg/kg/injection, schedule: Q04DX003 (ip), vehicle: acetone 92 % of control

CCCn1ncc(=O)[nH]c1=O
inactive: dose: 50.0 mg/kg/injection, schedule: Q01DX009 (ip), vehicle: saline with Tween-80 96 % of control | [7] 112 % of control | [8] 103 % of control

COc1nc(=O)n(C2CCCO2)cc1Br (stereo not given)
inactive: dose: 100.0 mg/kg/injection, schedule: Q01DX001 (ip), vehicle: other 107 % of control | dose: 200.0 mg/kg/injection, schedule: Q01DX001 (ip), vehicle: other 96 % of control | dose: 400.0 mg/kg/injection, schedule: Q01DX001 (ip), vehicle: other 98 % of control

CC(C)=COC(=N)C(N)=O
inactive: dose: 100.0 mg/kg/injection, schedule: Q04DX003 (ip), vehicle: other 100 % of control | dose: 200.0 mg/kg/injection, schedule: Q04DX003 (ip), vehicle: other 97 % of control | dose: 400.0 mg/kg/injection, schedule: Q04DX003 (ip), vehicle: other 115 % of control

CCCCNC(=O)Nc1cc(C)cc(C)n1
inactive: [1] 100 % of control | [2] 94 % of control | [3] 104 % of control | [4] 102 % of control | [5] 91 % of control | [6] 98 % of control

O=c1ccc2c(Cl)cc(CN(CCO)CCO)cc2[nH]1
inactive: dose: 75.0 mg/kg/injection, schedule: Q01DX001 (ip), vehicle: saline 102 % of control | dose: 75.0 mg/kg/injection, schedule: Q04DX003 (ip), vehicle: saline 97 % of control | dose: 150.0 mg/kg/injection, schedule: Q01DX001 (ip), vehicle: saline 102 % of control | dose: 150.0 mg/kg/injection, schedule: Q04DX003 (ip), vehicle: saline 92 % of control | dose: 300.0 mg/kg/injection, schedule: Q01DX001 (ip), vehicle: saline 108 % of control

CC(=O)NCCCC1CCCCC1CN (stereo not given)
inactive: [9] 104 % of control | [10] 114 % of control | [11] 114 % of control

S=C(SP(SC(=S)N1CCCCC1)SC(=S)N1CCCCC1)N1CCCCC1
inactive: dose: 100.0 mg/kg/injection, schedule: Q04DX002 (ip), vehicle: saline 95 % of control | dose: 200.0 mg/kg/injection, schedule: Q04DX002 (ip), vehicle: saline 89 % of control | dose: 400.0 mg/kg/injection, schedule: Q04DX002 (ip), vehicle: saline 95 % of control

Cc1ccc(P(=O)(O)O)c([N+](=O)[O-])c1
inactive: [12] 94 % of control | [13] 92 % of control

CC1(C)CCCC2(C)C(C(=O)O)C3CCC45OC3(CC12)OC(=O)C4C1(C)CCCC(C)(C)C1CC5=O (stereo not given)
inactive: [12] 101 % of control | [13] 107 % of control | [14] 109 % of control

O=[N+]([O-])c1cccc([N+](=O)[O-])c1Cl
inactive: dose: 100.0 mg/kg/injection, schedule: Q01DX001 (ip), vehicle: carboxymethylcellulose (CMC) 114 % of control | dose: 200.0 mg/kg/injection, schedule: Q01DX001 (ip), vehicle: carboxymethylcellulose (CMC) 108 % of control | dose: 400.0 mg/kg/injection, schedule: Q01DX001 (ip), vehicle: carboxymethylcellulose (CMC) 108 % of control

O=C1c2ccccc2C(=O)c2c(Nc3ccccc3)ccc(NCCO)c21
inactive: [12] 102 % of control | [13] 100 % of control | [14] 97 % of control

c1cncc(CNc2ncn[nH]2)c1
inactive: dose: 100.0 mg/kg/injection, schedule: Q01DX009 (ip), vehicle: saline 103 % of control | [9] 97 % of control | dose: 200.0 mg/kg/injection, schedule: Q01DX009 (ip), vehicle: saline 97 % of control | [10] 103 % of control | dose: 400.0 mg/kg/injection, schedule: Q01DX009 (ip), vehicle: saline 103 % of control | [11] 95 % of control

CCOc1ccc(N(O)C(C)=O)cc1
inactive: [9] 91 % of control | [10] 100 % of control | [11] 96 % of control

CC(=O)NC(=O)CC(O)(c1ccccc1)c1ccccc1
inactive: [7] 96 % of control | [8] 91 % of control | dose: 400.0 mg/kg/injection, schedule: Q01DX009 (ip), vehicle: saline with Tween-80 92 % of control

CCOC1c2cnc(C)n2C=CN1C(C)=O (stereo not given)
inactive: dose: 50.0 mg/kg/injection, schedule: Q01DX009 (ip), vehicle: water 96 % of control | dose: 100.0 mg/kg/injection, schedule: Q01DX009 (ip), vehicle: water 94 % of control | dose: 100.0 mg/kg/injection, schedule: Q04DX003 (ip), vehicle: water 116 % of control | dose: 200.0 mg/kg/injection, schedule: Q04DX003 (ip), vehicle: water 115 % of control

CN(C)c1ccc(Cc2ccc(N(C)C)nc2)cn1
inactive: [2] 110 % of control | [4] 102 % of control | [6] 100 % of control

c1ccc(CCN2CCCC2)nc1
inactive: dose: 12.5 mg/kg/injection, schedule: Q04DX002 (ip), vehicle: saline with Tween-80 103 % of control | dose: 25.0 mg/kg/injection, schedule: Q04DX002 (ip), vehicle: saline with Tween-80 98 % of control
